The ED50 is the dose that gives a 50% effect, or the effect in half of the subjects. High values mean a need for a large dose, low ones an effect at a small dose. A word on the inhibition: it is the relative decrease from the control value, in per cent.

Drawing on EP0794185A1, “BICYCLIC THIAZOLE COMPOUND” (MEIJI SEIKA KABUSHIKI KAISHA, priority 1994, dated 1996), this text covers ED50 and inhibition for 6 compounds.

In one data set the test system is catalepsy. The data set is described as follows: Cataleptogenic effect (extrapyramidal effect, catalepsy provoking activity) in mice. Particulars: male, ddY, mouse, in vivo, ip, catalepsy observed after 20, 30 and 40 minutes. The method, then: The extrapyramidal effect of the compounds according to the present invention was assayed by an index the catalepsy provoking activity as a representative pharmacological evaluation method of the extrapyramidal effect. Male ddY mice having a body weight of 25 - 35 g which were divided into groups each consisting of 3 - 6 animals were subjected to the test. The compound of the present invention was administered intraperitoneally to observe catalepsy after 20, 30 and 40 minutes, respectively. Catalepsy was judged as positive in such cases that a mouse whose front paw was compulsorily hung up on an iron bar having a diameter of 1 mm and horizontally laid at a height of 3 cm remained in such a strained posture for more than 30 seconds. […]

The test system of data set [1] is hyperlocomotion induced by methamphetamine in mice. Description: Anti-methamphetamine effect: inhibition of hyperlocomotion induced by methamphetamine in mice. In kind it is in vivo, Male ddY mice. To be noted: Mus musculus, 0.25 h, ip, 15 min after methamphetamine 2 mg/kg sc, locomotion measured for thirty minutes. The method, then: The antipsychotic activity of the compound according to the present invention was assayed by an index the inhibitory activity on the stimulation of hyperlocomotion induced by methamphetamine in mice. Male ddY mice having a weight of 25 - 35 g were divided into groups each consisting of 3 - 6 animals. The mouse was subcutaneously administered with methamphetamine (2 mg/kg). Fifteen minutes after this administration, the compound of the present invention was intraperitoneally administered. After further fifteen minutes, the animal was then placed in a transparent acrylic box (30 cm x 30 cm x 30 cm) mounted on an apparatus to measure the locomotion for thirty minutes (MUROMACHI KIKAI, ANIMEX AUTO MK-110).

The target in a further data set is T1, dopamine-D2 receptor (Rattus norvegicus, UniProt P61169).
T1 construct: using a P2 fraction of a rat cerebral corpus striatum; from tissue; host or cells: rat cerebral corpus striatum, P2 membrane fraction
T1 sequence (P61169 whole entry): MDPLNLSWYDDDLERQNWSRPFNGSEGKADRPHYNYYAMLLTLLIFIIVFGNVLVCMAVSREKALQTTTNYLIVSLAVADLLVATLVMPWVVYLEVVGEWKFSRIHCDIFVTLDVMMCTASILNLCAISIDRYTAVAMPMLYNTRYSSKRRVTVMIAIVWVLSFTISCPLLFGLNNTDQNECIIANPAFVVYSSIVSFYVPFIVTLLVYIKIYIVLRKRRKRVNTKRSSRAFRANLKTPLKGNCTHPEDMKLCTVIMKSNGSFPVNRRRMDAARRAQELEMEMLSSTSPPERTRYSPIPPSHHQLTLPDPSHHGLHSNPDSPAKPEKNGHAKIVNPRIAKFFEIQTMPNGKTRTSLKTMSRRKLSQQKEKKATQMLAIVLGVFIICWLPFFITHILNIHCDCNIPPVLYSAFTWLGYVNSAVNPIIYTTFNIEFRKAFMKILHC
Description: Binding to dopamine-D2 receptor, [3H]spiperone, P2 fraction of rat cerebral corpus striatum. To be noted: read-out: Inhibition at 10^-7 M (%).

A further data set concerns the target T2, serotonin-5-HT2 receptor (Rattus norvegicus, UniProt P14842).
T2 construct: a 5-HT2 receptor of a rat cerebral cortex; from tissue; host or cells: rat cerebral cortex, P2 membrane fraction
Description: Binding to serotonin-5-HT2 receptor, [3H]ketanserin, P2 fraction of rat cerebral cortex. To be noted: read-out: Inhibition at 10^-9 M (%).

T2 sequence (P14842 whole entry): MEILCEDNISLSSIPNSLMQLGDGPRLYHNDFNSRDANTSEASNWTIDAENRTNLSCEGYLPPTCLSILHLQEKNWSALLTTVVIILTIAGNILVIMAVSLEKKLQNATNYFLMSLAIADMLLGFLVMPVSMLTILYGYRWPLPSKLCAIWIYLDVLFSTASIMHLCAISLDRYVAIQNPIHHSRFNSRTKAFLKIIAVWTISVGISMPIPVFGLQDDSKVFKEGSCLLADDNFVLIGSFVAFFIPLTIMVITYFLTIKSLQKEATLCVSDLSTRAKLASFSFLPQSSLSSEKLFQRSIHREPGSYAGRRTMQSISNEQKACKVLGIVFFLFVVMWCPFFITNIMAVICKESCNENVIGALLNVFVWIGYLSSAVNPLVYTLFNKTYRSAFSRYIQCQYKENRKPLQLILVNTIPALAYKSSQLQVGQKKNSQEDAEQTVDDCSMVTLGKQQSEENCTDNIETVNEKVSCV
Description for dopamine-D2 receptor: The affinity of the compound of the present invention for D2 receptors was studied using a P2 fraction of a rat cerebral corpus striatum. The rat cerebral corpus striatum was homogenized in 0.32 M sucrose in an amount of 10 times that of the rat cerebral corpus striatum, and the homogenate was centrifuged at 900 x g for 10 min. […] An incubation buffer (50 mM Tris, 120 mM NaCl, 5 mM KCl, 1 mM MgCl2, 1 mM CaCl2, pH 7.4) was added to the sediment, and the mixture was then centrifuged at 39,000 x g for 20 min. The sediment was obtained as a P2 fraction. The P2 fraction was incubated at 37°C for 30 min in a buffer containing 0.1 nM [^3H]spiperone and the compound of the present invention with various concentrations. The reaction solution was filtered through a Whatman GF/B glass filter, and the amount of bound [^3H]spiperone was measured by a liquid scintillation counter.
Description for serotonin-5-HT2 receptor: The affinity of the compound of the present invention for a 5-HT2 receptor of a rat cerebral cortex was assayed as follows. A P2 fraction was prepared in the same manner as described above in connection with the above (a). The P2 fraction was incubated at 37°C for 15 min in a 50 mM Tris/HCl buffer (pH 7.4) containing 1 nM [^3H]ketanserin and the compound of the present invention with various concentrations, and the amount of bound [^3H]ketanserin was then measured.

As for `Cc1cn2c(C)c(CCN3CCC(c4noc5cc(F)ccc45)CC3)sc2n1` [Example 11, 3,6-Dimethyl-2-[2-[4-(6-fluoro-1,2-benzisoxazol-3-yl)-1-piperidinyl]ethyl]imidazo[2,1-b]thiazole], the values for the median effective dose (ED50) (in the data set on catalepsy; in data set [1]) were 3.3 mg/kg and 0.12 mg/kg, respectively.
Turning to `Cc1cc(=O)n2c(C)c(CCN3CCC(c4csc5cc(F)ccc45)CC3)sc2n1` [Example 8, 3,7-Dimethyl-2-[2-[4-(6-fluoro-1-benzothiophen-3-yl)-1-piperidinyl]ethyl]-5H-thiazolo[3,2-a]pyrimidin-5-one], at dopamine-D2 receptor, the inhibition at 0.1 µM was 95.2%.
Regarding `Cc1cc(=O)n2c(CCN3CCC(c4noc5cc(F)ccc45)CC3)csc2n1` [Example 20, 3-[2-[4-(6-Fluoro-1,2-benzisoxazol-3-yl)-1-piperidinyl]ethyl]-5H-7-methylthiazolo[3,2-a]pyrimidin-5-one], the inhibition at 0.001 µM on serotonin-5-HT2 receptor turned out to be 66.3%. This compound also displayed an ED50 in data set [1] of 0.04 mg/kg.
As for `CN(C)CCCN1c2ccccc2Sc2ccc(Cl)cc21` [Chlorpromazine, chlorpromazine, reference compound], the values for the ED50 (in the data set with catalepsy; in data set [1]) were 6.2 mg/kg and 1.1 mg/kg, respectively.
The like results for `O=C(CCCN1CCC(O)(c2ccc(Cl)cc2)CC1)c1ccc(F)cc1` [Haloperidol, haloperidol, reference compound] were, in that order, 1.3 mg/kg and 0.2 mg/kg.
Take `Cc1cc(=O)n2c(C)c(CCN3CCC(c4noc5cc(F)ccc45)CC3)sc2n1` [Example 4, 3,7-Dimethyl-2-[2-[4-(6-fluoro-1,2-benzisoxazol-3-yl)-1-piperidinyl]ethyl]-5H-thiazolo[3,2-a]pyrimidin-5-one]: the ED50 in the data set with catalepsy stood at 1.2 mg/kg; in data set [1], 0.07 mg/kg.
